Columns and labels:
Assay in all cases: NCI-60 SRB screen
Assay type in all cases: cell-based
[1] = test system: MOLT-4; details: Homo sapiens; MOLT-4, 10^–5 Molar; read-out: Percent growth inhibition
[2] = test system: MALME-3M; details: Homo sapiens, 10^–5 Molar, read-out: Percent growth inhibition
Experimental: (§1) All newly synthesized compounds were selected and screened for anticancer activity against 60 human cancer cell lines representing 9 types of tumors including leukemia, melanoma, lung, colon, CNS, ovarian, renal, prostate, and breast cancers at the National Cancer Institute (NCI), Bethesda, USA. Screening was performed utilizing a single dose (10^−5 M concentration) and cells were incubated for 48 h. The end point was determined using sulforhodamine B (SRB) dye.
(§2) In this study, all the 16 newly synthesized compounds were submitted to the National Cancer Institute (USA) for anticancer evaluation and were selected and evaluated using 60 different human tumor cell lines representing lung, colon, CNS, ovarian, renal, prostate, breast cancers as well as leukemia and melanoma. A single dose (10^–5 Molar) was used for the initial screening for evaluation of anticancer activity. The 60 human cancer cell lines were provided by the national cancer institute biomedical research campus in Frederick, Maryland.
(§3) 60 different human cancer cell lines were utilized to screen the newly synthesized compounds for anticancer activity according to the previously reported standard procedure[24]–[26] as follows: • 96 well microtiter plates were used to inoculate the cells at […] ranging from 4000–5000 cells/well depending on the replication time of individual cell lines. Roswell Park Memorial Institute culture medium (RPMI 1640 medium) containing 2 mM L-glutamine and fetal bovine serum was used to grow the cells at 37 °C, 5% CO2, 95% air and 100% relative humidity for 24 h. • Fixation of cells in two plates of each cell line in situ was done using trichloroacetic acid (TCA). This represented the measurement of cell population at the time of drug addition (Tz). • Dimethyl sulfoxide (DMSO) was used to dissolve the synthesized compounds at 400-fold the desired final maximum concentration and frozen prior to use. This frozen concentrate was melted and diluted to twice the final concentration with complete medium containing 50 µg/mL gentamycin at time of drug addition. • The final compound concentration was obtained by adding 100 µL of the synthesized compounds to the appropriate microtiter wells already containing 100 µL followed by incubation of the plates at 37 °C, 5% CO2, 95% air and 100% relative humidity for 48 h. • Fixation of the cells was achieved by gentle addition of 50 µL of cold 50% (w/v) TCA followed by incubation for 60 min at 4 °C. The supernatant was then discarded and the plates are washed 5 times with tap water and air dried. • Sulphorhodamine B (SRB) solution (100 µL) at 0.4% (w/v) in 1% acetic acid was added to each plate followed by incubation for 10 min at room temperature. The unbound dye was then removed by washing five times with 1% acetic acid and plates were air dried. • Dissolution of the bound stain was done using […] trizma base and the absorbance was read at […] wavelength using an automated plate reader. • The percentage growth inhibition was calculated as follows: Ti-Tz/C-Tz×100forconcentrationswhichTi≥Tz Ti-Tz/Tz×100forconcentrationswhichTi<Tz • Time zero (Tz) • Control growth (C) • Test growth in the presence of drug (Ti)

[3] = test system: SW-620; details: Homo sapiens; SW-620, 10^–5 Molar; read-out: Percent growth inhibition
Experimental: as §1, §2, §3

[4] = test system: SNB-19; details: Homo sapiens; SNB-19, 10^–5 Molar; read-out: Percent growth inhibition
Experimental: as §1, §2, §3

[5] = test system: K-562; details: Homo sapiens, K562; K-562, 10^–5 Molar; read-out: Percent growth inhibition
Experimental: as §1, §2, §3

[6] = test system: MCF7; details: Homo sapiens; MCF7, 10^–5 Molar; read-out: Percent growth inhibition
Experimental: as §1, §2, §3

[7] = test system: OVCAR-8; details: Homo sapiens; OVCAR-8, 10^–5 Molar; read-out: Percent growth inhibition
Experimental: as §1, §2, §3

[8] = test system: CAKI-1; details: Homo sapiens; CAKI-1, 10^–5 Molar; read-out: Percent growth inhibition
Experimental: as §1, §2, §3

[9] = test system: PC-3; details: Homo sapiens; PC-3, 10^–5 Molar; read-out: Percent growth inhibition
Experimental: as §1, §2, §3

[10] = test system: NCI-H23; details: Homo sapiens; NCI-H23, 10^–5 Molar; read-out: Percent growth inhibition
Experimental: as §1, §2, §3

[11] = test system: IGROV1; details: Homo sapiens, IGROV-1; IGROV1, 10^–5 Molar; read-out: Percent growth inhibition
Experimental: as §1, §2, §3

[12] = test system: M14; details: Homo sapiens; M14, 10^–5 Molar; read-out: Percent growth inhibition
Experimental: as §1, §2, §3

[13] = test system: MDA-MB-231/ATCC; details: Homo sapiens, 10^–5 Molar, read-out: Percent growth inhibition
Experimental: as §1, §2, §3

[14] = test system: CCRF-CEM; details: Homo sapiens, 10^–5 Molar, read-out: Percent growth inhibition
Experimental: as §1, §2, §3

[15] = test system: NCI-H226; details: Homo sapiens; NCI-H226, 10^–5 Molar; read-out: Percent growth inhibition
Experimental: as §1, §2, §3

[16] = test system: SF-539; details: Homo sapiens; SF-539, 10^–5 Molar; read-out: Percent growth inhibition
Experimental: as §1, §2, §3

[17] = test system: HOP-92; details: Homo sapiens; HOP-92, 10^–5 Molar; read-out: Percent growth inhibition
Experimental: as §1, §2, §3

[18] = test system: ACHN; details: Homo sapiens, 10^–5 Molar, read-out: Percent growth inhibition
Experimental: as §1, §2, §3

[19] = test system: A549/ATCC; details: Homo sapiens, 10^–5 Molar, read-out: Percent growth inhibition
Experimental: as §1, §2, §3

[20] = test system: HOP-62; details: Homo sapiens; HOP-62, 10^–5 Molar; read-out: Percent growth inhibition
Experimental: as §1, §2, §3

[21] = test system: HCT-15; details: Homo sapiens; HCT-15, 10^–5 Molar; read-out: Percent growth inhibition
Experimental: as §1, §2, §3

[22] = test system: SF-295; details: Homo sapiens; SF-295, 10^–5 Molar; read-out: Percent growth inhibition
Experimental: as §1, §2, §3

[23] = test system: HCC-2998; details: Homo sapiens; HCC-2998, 10^–5 Molar; read-out: Percent growth inhibition
Experimental: as §1, §2, §3

[24] = test system: KM12; details: Homo sapiens; KM12, 10^–5 Molar; read-out: Percent growth inhibition
Experimental: as §1, §2, §3

| SMILES | inhibition at 10 µM [2] [%] | inhibition at 10 µM [3] [%] | inhibition at 10 µM [4] [%] | inhibition at 10 µM [5] [%] | inhibition at 10 µM [6] [%] | inhibition at 10 µM [7] [%] | inhibition at 10 µM [8] [%] | inhibition at 10 µM [9] [%] | inhibition at 10 µM [10] [%] | inhibition at 10 µM [11] [%] | inhibition at 10 µM [13] [%] | inhibition at 10 µM [14] [%] | inhibition at 10 µM [15] [%] | inhibition at 10 µM [16] [%] | inhibition at 10 µM [17] [%] | inhibition at 10 µM [18] [%] | inhibition at 10 µM [19] [%] | inhibition at 10 µM [20] [%] | inhibition at 10 µM [22] [%] | inhibition at 10 µM [24] [%] | other results |
| --- | --- | --- | --- | --- | --- | --- | --- | --- | --- | --- | --- | --- | --- | --- | --- | --- | --- | --- | --- | --- | --- |
| CCn1cc(C(=O)NN=Cc2ccccc2)c(=O)c2cc(F)c(N3CCNC(C)C3)c(F)c21 (stereo not shown) [Compound 3a, N'-Benzylidene-1-ethyl-6,8-difluoro-7-(3-methylpiperazin-1-yl)-4-oxo-1,4-dihydroquinoline-3-carbohydrazide] | 178 | 181 | 81.1 | 139 | 184 | 71.6 | 54.2 | 51.1 | 31.5 | 42 | 170 | 152 | 12.6 | 187 | 44.2 | 43.2 | 184 | 31.4 | 91.1 | 189 | inhibition at 10 µM [1]: 125%; inhibition at 10 µM [12]: 150%; inhibition at 10 µM [21]: 186%; inhibition at 10 µM [23]: 183% |
| CCn1cc(C(=O)O)c(=O)c2cc(F)c(N3CCN(CC(=O)Nc4ccccc4)C(C)C3)c(F)c21 (stereo not shown) [Compound 5a, 1-Ethyl-6,8-difluoro-7-(3-methyl-4-(2-oxo-2-(phenylamino)ethyl)piperazin-1-yl)-4-oxo-1,4-dihydroquinoline-3-carboxylic acid] | 2.09 | – | 0.85 | 12.9 | 7.33 | 1.7 | 13 | 6.83 | 8.68 | – | 12.9 | 3.25 | – | 0.89 | 2.95 | 2.19 | 2.07 | – | 4.71 | 0.07 | inhibition at 10 µM [23]: 0.15% |
| CCn1cc(C(=O)O)c(=O)c2cc(F)c(N3CCN(CC(=O)Nc4ccc(Cl)cc4)C(C)C3)c(F)c21 (stereo not shown) [Compound 5b, 7-(4-(2-((4-Chlorophenyl)amino)-2-oxoethyl)-3-methylpiperazin-1-yl)-1-ethyl-6,8-difluoro-4-oxo-1,4-dihydroquinoline-3-carboxylic acid] | 4.32 | 1.08 | 1.6 | 14.2 | 10.6 | 7.15 | 13.7 | 12.1 | 7.93 | 0.82 | 15.7 | 2.48 | 3.83 | 4.4 | 9.45 | 14 | 6.12 | – | 13 | 3.94 | inhibition at 10 µM [1]: 1%; inhibition at 10 µM [12]: 2.06%; inhibition at 10 µM [21]: 1.39% |
| CCn1cc(C(=O)O)c(=O)c2cc(F)c(N3CCN(C(=O)c4ccccc4)C(C)C3)c(F)c21 (stereo not shown) [Compound 7a, 7-(4-Benzoyl-3-methylpiperazin-1-yl)-1-ethyl-6,8-difluoro-4-oxo-1,4-dihydroquinoline-3-carboxylic acid] | 4.96 | – | – | 7.84 | 6.26 | 4.61 | 15.4 | 13 | 4.39 | 3.14 | 16.6 | 2.26 | 2.44 | 10.7 | 31.8 | 5.78 | – | 4.44 | 6.9 | 1.89 | inhibition at 10 µM [12]: 9.98%; inhibition at 10 µM [23]: 5.26% |
| CCn1cc(C(=O)O)c(=O)c2cc(F)c(N3CCN(C(=O)c4ccc(Br)cc4)C(C)C3)c(F)c21 (stereo not shown) [Compound 7b, 7-(4-(4-Bromobenzoyl)-3-methylpiperazin-1-yl)-1-ethyl-6,8-difluoro-4-oxo-1,4-dihydroquinoline-3-carboxylic acid] | – | 0 | 4.45 | 0.24 | 8.87 | – | 13.6 | 5.63 | – | 5.97 | 13.3 | – | 1.95 | 9.67 | – | 2.27 | 1.07 | 5.56 | 6.71 | 3.51 | inhibition at 10 µM [21]: 1.3% |
| CCn1cc(C(=O)O)c(=O)c2cc(F)c(N3CCN(C(=O)c4ccc(Cl)cc4)C(C)C3)c(F)c21 (stereo not shown) [Compound 7c, 7-(4-(4-Chlorobenzoyl)-3-methylpiperazin-1-yl)-1-ethyl-6,8-difluoro-4-oxo-1,4-dihydroquinoline-3-carboxylic acid] | 1.6 | – | 6.42 | 1.62 | 9.09 | – | 14.9 | 9.65 | – | 1.62 | 14.3 | – | 7.33 | 5.06 | – | 4.45 | 1.75 | 2.13 | 3.13 | 0.72 | – |
| CCn1cc(C(=O)O)c(=O)c2cc(F)c(N3CCN(C(=O)c4ccc([N+](=O)[O-])cc4)C(C)C3)c(F)c21 (stereo not shown) [Compound 7d, 1-Ethyl-6,8-difluoro-7-(3-methyl-4-(4-nitrobenzoyl)piperazin-1-yl)-4-oxo-1,4-dihydroquinoline-3-carboxylic acid] | 0.88 | – | 3.31 | 2.06 | 5.47 | – | 17.6 | 12 | – | – | 8.63 | – | 3.95 | 8.54 | 0.34 | 2.14 | – | 7.44 | 2.82 | 1.24 | – |

Source: publication PMC10940605, “Design, synthesis and in vitro anticancer activity of some new lomefloxacin derivatives” (Scientific Reports, 2024)
